Assay results: ChEMBL document CHEMBL1817642, “Stereoselective synthesis and antimicrobial activity of steroidal C-20 tertiary alcohols with thiazole/pyridine side chain” (2011)
Converted amounts (≈) assume the structure as drawn.

Tests used:
Assay type in all cases: functional
Fusarium oxysporum = assay: Antifungal activity against Fusarium oxysporum isolate NCL5 after 48 hrs by broth dilution method; conditions: isolate NCL5, 48 h
Escherichia coli = assay: Antibacterial activity against Escherichia coli NCIM 2574 after 24 hrs by NCCLS method; conditions: NCIM 2574, 24 h
Staphylococcus aureus = assay: Antibacterial activity against Staphylococcus aureus NCIM 2122 after 24 hrs by NCCLS method; conditions: NCIM 2122, 24 h
Candida albicans = assay: Antifungal activity against Candida albicans isolate NCL1 after 48 hrs by broth dilution method; conditions: isolate NCL1, 48 h
Yarrowia lipolytica = assay: Antifungal activity against Yarrowia lipolytica isolate NCL4 after 24 hrs by broth dilution method; conditions: isolate NCL4, 24 h
Benjaminiella poitrasii = assay: Antifungal activity against Benjaminiella poitrasii isolate NCL3 after 24 hrs by M38-P broth dilution method; conditions: isolate NCL3, 24 h
Cryptococcus neoformans = assay: Antifungal activity against Cryptococcus neoformans isolate NCL2 after 72 hrs by broth dilution method; conditions: isolate NCL2, 72 h

| Compound | MIC90 (Fusarium oxysporum) | MIC90 (Escherichia coli) | MIC90 (Staphylococcus aureus) | MIC90 (Candida albicans) | MIC90 (Yarrowia lipolytica) | MIC90 (Benjaminiella poitrasii) | MIC90 (Cryptococcus neoformans) |
| --- | --- | --- | --- | --- | --- | --- | --- |
| C[C@]12CC[C@H](O)C[C@@H]1CC[C@@H]1[C@@H]2CC[C@@]2(C)[C@H]1CC[C@@H]2[C@@](C)(O)c1ccccn1 | > 64 µg/mL | 8 µg/mL (≈ 20.1 µM) | 8 µg/mL (≈ 20.1 µM) | 32 µg/mL (≈ 80.5 µM) | 32 µg/mL (≈ 80.5 µM) | 64 µg/mL (≈ 161 µM) | 64 µg/mL (≈ 161 µM) |
| CC(C)(C)[Si](C)(C)O[C@H]1CC[C@@]2(C)C(=CC[C@H]3[C@@H]4CC[C@H]([C@@](C)(O)c5nccs5)[C@@]4(C)CC[C@@H]32)C1 | > 64 µg/mL | 8 µg/mL (≈ 15.5 µM) | 16 µg/mL (≈ 31 µM) | 16 µg/mL (≈ 31 µM) | > 64 µg/mL | > 64 µg/mL | > 64 µg/mL |
| C[C@]12CC[C@H]3[C@@H](CC=C4C[C@@H](O)CC[C@@]43C)[C@@H]1CC[C@@H]2[C@@](C)(O)c1nccs1 | 64 µg/mL (≈ 159 µM) | 8 µg/mL (≈ 19.9 µM) | 8 µg/mL (≈ 19.9 µM) | 16 µg/mL (≈ 39.8 µM) | 32 µg/mL (≈ 79.7 µM) | 32 µg/mL (≈ 79.7 µM) | 32 µg/mL (≈ 79.7 µM) |
| CC(=O)O[C@H]1CC[C@@]2(C)C(=CC[C@H]3[C@@H]4CC[C@H]([C@@](C)(O)c5nccs5)[C@@]4(C)CC[C@@H]32)C1 | 64 µg/mL (≈ 144 µM) | 8 µg/mL (≈ 18 µM) | 32 µg/mL (≈ 72.1 µM) | > 64 µg/mL | > 64 µg/mL | 32 µg/mL (≈ 72.1 µM) | 32 µg/mL (≈ 72.1 µM) |
| CC(C)(C)[Si](C)(C)O[C@H]1CC[C@@]2(C)[C@@H](CC[C@@H]3[C@@H]2CC[C@@]2(C)[C@H]3CC[C@@H]2[C@@](C)(O)c2nccs2)C1 | 64 µg/mL (≈ 124 µM) | 16 µg/mL (≈ 30.9 µM) | 16 µg/mL (≈ 30.9 µM) | > 64 µg/mL | 64 µg/mL (≈ 124 µM) | 32 µg/mL (≈ 61.8 µM) | > 64 µg/mL |
| C[C@]12CC[C@H](O)C[C@@H]1CC[C@@H]1[C@@H]2CC[C@@]2(C)[C@H]1CC[C@@H]2[C@@](C)(O)c1nccs1 | > 64 µg/mL | 16 µg/mL (≈ 39.6 µM) | 32 µg/mL (≈ 79.3 µM) | 64 µg/mL (≈ 159 µM) | > 64 µg/mL | > 64 µg/mL | 32 µg/mL (≈ 79.3 µM) |
| CC(=O)O[C@H]1CC[C@@]2(C)[C@@H](CC[C@@H]3[C@@H]2CC[C@@]2(C)[C@H]3CC[C@@H]2[C@@](C)(O)c2nccs2)C1 | 16 µg/mL (≈ 35.9 µM) | 16 µg/mL (≈ 35.9 µM) | 16 µg/mL (≈ 35.9 µM) | 8 µg/mL (≈ 18 µM) | > 64 µg/mL | 16 µg/mL (≈ 35.9 µM) | 64 µg/mL (≈ 144 µM) |
| CC(C)(C)[Si](C)(C)O[C@H]1CC[C@@]2(C)C(=CC[C@H]3[C@@H]4CC[C@H]([C@@](C)(O)c5ccccn5)[C@@]4(C)CC[C@@H]32)C1 | 8 µg/mL (≈ 15.7 µM) | 16 µg/mL (≈ 31.4 µM) | 8 µg/mL (≈ 15.7 µM) | 16 µg/mL (≈ 31.4 µM) | 8 µg/mL (≈ 15.7 µM) | 16 µg/mL (≈ 31.4 µM) | 32 µg/mL (≈ 62.8 µM) |
| C[C@]12CC[C@H]3[C@@H](CC=C4C[C@@H](O)CC[C@@]43C)[C@@H]1CC[C@@H]2[C@@](C)(O)c1ccccn1 | 16 µg/mL (≈ 40.4 µM) | 16 µg/mL (≈ 40.4 µM) | 8 µg/mL (≈ 20.2 µM) | > 64 µg/mL | 32 µg/mL (≈ 80.9 µM) | 32 µg/mL (≈ 80.9 µM) | 64 µg/mL (≈ 162 µM) |
| CC(=O)O[C@H]1CC[C@@]2(C)C(=CC[C@H]3[C@@H]4CC[C@H]([C@@](C)(O)c5ccccn5)[C@@]4(C)CC[C@@H]32)C1 | 64 µg/mL (≈ 146 µM) | 8 µg/mL (≈ 18.3 µM) | 32 µg/mL (≈ 73.1 µM) | > 64 µg/mL | 16 µg/mL (≈ 36.6 µM) | 32 µg/mL (≈ 73.1 µM) | > 64 µg/mL |
| CC(C)(C)[Si](C)(C)O[C@H]1CC[C@@]2(C)[C@@H](CC[C@@H]3[C@@H]2CC[C@@]2(C)[C@H]3CC[C@@H]2[C@@](C)(O)c2ccccn2)C1 | 32 µg/mL (≈ 62.5 µM) | 8 µg/mL (≈ 15.6 µM) | 16 µg/mL (≈ 31.3 µM) | 32 µg/mL (≈ 62.5 µM) | > 64 µg/mL | 64 µg/mL (≈ 125 µM) | 16 µg/mL (≈ 31.3 µM) |
| CC(=O)O[C@H]1CC[C@@]2(C)[C@@H](CC[C@@H]3[C@@H]2CC[C@@]2(C)[C@H]3CC[C@@H]2[C@@](C)(O)c2ccccn2)C1 | > 64 µg/mL | 8 µg/mL (≈ 18.2 µM) | 16 µg/mL (≈ 36.4 µM) | 16 µg/mL (≈ 36.4 µM) | 64 µg/mL (≈ 146 µM) | 16 µg/mL (≈ 36.4 µM) | 64 µg/mL (≈ 146 µM) |
| CC(=O)[C@H]1[C@H](c2ccccn2)C[C@H]2[C@@H]3CC=C4C[C@@H](OS(C)(C)C(C)(C)C)CC[C@]4(C)[C@H]3CC[C@@]21C | 64 µg/mL (≈ 125 µM) | 16 µg/mL (≈ 31.3 µM) | 16 µg/mL (≈ 31.3 µM) | 32 µg/mL (≈ 62.5 µM) | 8 µg/mL (≈ 15.6 µM) | 64 µg/mL (≈ 125 µM) | > 64 µg/mL |
| CC(=O)[C@H]1[C@H](c2ccccn2)C[C@H]2[C@@H]3CC=C4C[C@@H](O)CC[C@]4(C)[C@H]3CC[C@@]21C | 64 µg/mL (≈ 163 µM) | 16 µg/mL (≈ 40.7 µM) | 8 µg/mL (≈ 20.3 µM) | 32 µg/mL (≈ 81.3 µM) | 16 µg/mL (≈ 40.7 µM) | 32 µg/mL (≈ 81.3 µM) | > 64 µg/mL |
| CC(=O)O[C@H]1CC[C@@]2(C)C(=CC[C@H]3[C@@H]4C[C@@H](c5ccccn5)[C@H](C(C)=O)[C@@]4(C)CC[C@@H]32)C1 | 32 µg/mL (≈ 73.5 µM) | 16 µg/mL (≈ 36.7 µM) | 16 µg/mL (≈ 36.7 µM) | > 64 µg/mL | > 64 µg/mL | 64 µg/mL (≈ 147 µM) | 32 µg/mL (≈ 73.5 µM) |
| C[C@@H]1[C@H](O)[C@@H](C)/C=C/C=C/C=C/C=C/C=C/C=C/C=C/[C@H](O[C@@H]2O[C@H](C)[C@@H](O)[C@H](N)[C@@H]2O)C[C@@H]2O[C@](O)(C[C@@H](O)C[C@@H](O)[C@H](O)CC[C@@H](O)C[C@@H](O)CC(=O)O[C@H]1C)C[C@H](O)[C@H]2C(=O)O [AMPHOTERICIN B] | 16 µg/mL (≈ 17.3 µM) | – | – | 2 µg/mL (≈ 2.16 µM) | 16 µg/mL (≈ 17.3 µM) | 16 µg/mL (≈ 17.3 µM) | 16 µg/mL (≈ 17.3 µM) |
| CC[C@H]1OC(=O)[C@H](C)[C@@H](O[C@H]2C[C@@](C)(OC)[C@@H](O)[C@H](C)O2)[C@H](C)[C@@H](O[C@@H]2O[C@H](C)C[C@H](N(C)C)[C@H]2O)[C@](C)(O)C[C@@H](C)C(=O)[C@H](C)[C@@H](O)[C@]1(C)O [ERYTHROMYCIN] | – | > 64 µg/mL | 32 µg/mL (≈ 43.6 µM) | – | – | – | – |
| OC(Cn1cncn1)(Cn1cncn1)c1ccc(F)cc1F [FLUCONAZOLE] | 8 µg/mL (≈ 26.1 µM) | – | – | 32 µg/mL (≈ 104 µM) | 64 µg/mL (≈ 209 µM) | 32 µg/mL (≈ 104 µM) | 32 µg/mL (≈ 104 µM) |
| CN(C)[C@@H]1C(O)=C(C(N)=O)C(=O)[C@@]2(O)C(O)=C3C(=O)c4c(O)cccc4[C@@](C)(O)[C@H]3C[C@@H]12 [TETRACYCLINE] | – | 8 µg/mL (≈ 18 µM) | 16 µg/mL (≈ 36 µM) | – | – | – | – |
